Assays:
[1] = test system: Candida albicans (drug-resistant strain, BCRC 21538 / ATCC 10231); assay: Antimicrobial efficacy of rose bengal-PDT (colony counting after green light exposure); format: cell-based; conditions: 0.2 wt % RB; for log reduction value of the amounts of C. albicans: compared to without light exposure; for antimicrobial rate: equivalent of log reduction
Protocol: A drug-resistant strain of Candida albicans was bought from the Bioresource Collection and Research Center (BCRC), Food Industry Research and Development Institute (FIRDI), 331, Shipin Rd., East Dist., Hsinchu City, Taiwan (postcode: 300193) under the accession number of BCRC 21538. The same strain could also be bought from American Type Culture Collection (ATCC), VA, USA under an accession number of ATCC 10231.
The Candida albicans was grown and prepared in a fungal solution with an amount of 1×10^7 CFU/mL and mixed with an equal volume of rose bengal (RB) solution (i.e., the mixed volume ratio was 1:1) to obtain a mixed solution containing 0.2 wt % RB (0.2 wt % RB group).
A portion of the mixed solution containing 0.2 wt % RB and fungi was exposed to green light of 10 J/cm^2 or 20 J/cm^2 at 25±1° C., and another portion of the mixed solution was not treated with light exposure. The light source of the aforementioned green light was a commercial green light LED with an emission peak at the wavelength of 520 nm. […] Noted that three drops represented three repeats. […] In the control group, the fungal solution was mixed with an equal volume of PBS.

C. albicans = assay: Antimicrobial efficacy of the photoactive solution after adding a low concentration of hydrogen peroxide; format: cell-based, Candida albicans; conditions: for C. albicans amount compared to the NC group: no light exposure
Protocol: The negative control (referred to as NC) group was the fungal solution of C. albicans not being treated with RB, hydrogen peroxide, and light exposure. The light control (referred to as LC) group was the fungal solution of C. albicans exposed to light but contained neither RB nor hydrogen peroxide. […] The hydrogen peroxide (referred to as H2O2) group was the fungal solution of C. albicans treated with 0.03 wt % hydrogen peroxide without RB for 15 minutes but not subjected to the light exposure treatment. The photodynamic therapy (referred to as PDT) group was the fungal solution of C. albicans treated with 0.1 wt % RB without hydrogen peroxide for 15 minutes and subjected to 35 J/cm^2 green light exposure treatment. The photodynamic therapy with 0.03 wt hydrogen peroxide (referred to as H2O2+PDT) group was the fungal solution of C. albicans treated with 0.1 wt % RB and 0.03 wt % hydrogen peroxide for 15 minutes and subjected to the 35 J/cm^2 green light exposure treatment. FIG. 6 was a bar chart illustrating the amount of C. albicans after different treatments in the fungal solution according to some embodiments of the present invention. The x-axis represented the NC group, the LC group, the DC group, the H2O2 group, the PDT group, and the H2O2+PDT group from left to right. The y-axis represented the C. albicans amount (unit: log CFU/mL).

Row | Compound | log reduction value of the amounts of C. albicans ([1]; 10 J/cm^2 green light (520 nm)) | antimicrobial rate ([1]; 10 J/cm^2 green light) [%] | log reduction value of the amounts of C. albicans ([1]; 20 J/cm^2 green light (520 nm)) | antimicrobial rate ([1]; 20 J/cm^2 green light) [%] | C. albicans amount compared to the NC group (C. albicans; DC group: 0.1 wt % RB for 15 minutes) | log reduction value of the C. albicans amount (C. albicans; PDT group: 0.1 wt % RB without hydrogen peroxide, 15 minutes, 35 J/cm^2 green light, compared to NC group) | C. albicans amount compared to the NC group (C. albicans; H2O2 group: 0.03 wt % hydrogen peroxide without RB for 15 minutes)
1 | O=C1OC2(c3cc(I)c(O)c(I)c3Oc3c2cc(I)c(O)c3I)c2c(Cl)c(Cl)c(Cl)c(Cl)c21 [RB, rose bengal] | 1 | 90 | 6 | 99.9999 | no significant difference | 2.5 | –
2 | OO [hydrogen peroxide] | – | – | – | – | – | – | no significant difference

Source: patent publication US20240293548A1, “CONTACT LENS FOR PHOTODYNAMIC INACTIVATION OF GERMS, PRODUCT AND METHOD OF TREATING FUNGAL KERATITIS BY APPLYING THE SAME” (NATIONAL CHENG KUNG UNIVERSITY, priority 2023, published 2024)
